Measurements: patent publication US6130053A, “Method for selecting compounds for inhibition of neoplastic lesions” (priority 1999, dated 2000)
Entries after “also recorded” stand apart in the source; their conditions may differ. Where two headings read alike, the source gives them in different places. Blank lines part the entries; values can stand above or below the molecule they belong to.

Legend:
native bovine PDE5 = settings: read-out: Kd (cGMP binding, native bovine PDE5); cited from earlier work
[1] = test system: PDE peak B (novel cGMP-specific phosphodiesterase); test: Inhibition of cGMP hydrolysis by PDE peak B (novel cGMP-specific PDE) from SW480 cells; format: biochemical, human; settings: for Km: absence of cAMP
[2] = test system: PDE peak B (novel cGMP-specific phosphodiesterase); settings: cited from earlier work
PDE peak A (PDE5) = target: T1, PDE peak A (PDE5) (Homo sapiens, UniProt O76074); test: Inhibition of cGMP hydrolysis by PDE peak A from SW480 cells; format: biochemical
T1 construct: approximately four hundred million SW480 cells at confluence were scraped; endogenous in cells; host or cells: SW480 human colon adenocarcinoma cells (DEAE-Trisacryl M fraction)

[3] = test system: SW-480 colon adenocarcinoma cells; test: Apoptosis inducing activity, fold induction (fold stimulation, DNA fragmentation ELISA); settings: for fold induction at 100 µM: Homo sapiens, SW480, read-out: Fold induction of apoptosis at 100 μM, 100 μM
[4] = target: T2, COX-I (purified cyclooxygenase Type 1) (Ovis aries, UniProt P05979); test: COX inhibition assay, purified cyclooxygenase (Type 1); format: biochemical, ram; settings: for COX-I inhibition: FIG. 5
T2 construct: purified cyclooxygenase from ram seminal vesicles; from tissue; host or cells: ram seminal vesicles
T2 sequence (P05979 25-600): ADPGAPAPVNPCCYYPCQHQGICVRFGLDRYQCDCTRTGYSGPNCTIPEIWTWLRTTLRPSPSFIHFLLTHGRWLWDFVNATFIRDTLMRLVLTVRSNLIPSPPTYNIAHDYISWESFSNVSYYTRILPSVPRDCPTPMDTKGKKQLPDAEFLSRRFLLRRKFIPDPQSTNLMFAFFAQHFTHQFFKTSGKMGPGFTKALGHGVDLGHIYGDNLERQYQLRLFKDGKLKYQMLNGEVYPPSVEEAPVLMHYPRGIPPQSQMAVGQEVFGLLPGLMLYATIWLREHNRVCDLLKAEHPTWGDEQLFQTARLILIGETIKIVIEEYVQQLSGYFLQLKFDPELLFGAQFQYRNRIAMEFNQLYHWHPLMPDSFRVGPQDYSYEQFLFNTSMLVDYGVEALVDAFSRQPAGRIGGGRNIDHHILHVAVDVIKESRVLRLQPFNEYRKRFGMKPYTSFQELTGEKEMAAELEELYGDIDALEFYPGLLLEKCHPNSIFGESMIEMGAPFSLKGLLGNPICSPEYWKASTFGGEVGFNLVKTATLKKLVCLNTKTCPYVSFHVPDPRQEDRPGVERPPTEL

cGMP PDE = cGMP PDE inhibition assay, enzyme purified from HT-29 cultured tumor cells; format: biochemical, human
HT-29 cells = test: Growth inhibition of HT-29 cells; format: cell-based, human
HT-29 cells (cAMP level) = test: cAMP production in cultured HT-29 cells (radioimmunoassay); format: cell-based, human; settings: 30 minutes
[5] = test system: [H][C@@]12COP(=O)(O)O[C@@]1([H])[C@@H](O)[C@H](n1cnc3c(=O)[nH]c(N)nc31)O2; test: purified protein, by the assay type; settings: 30.0 °C
[6] = test system: premalignant lesions in mammary gland organ culture; test: Inhibition of premalignant lesions in mammary gland organ culture; format: cell-based, mouse; settings: FIG. 17
[7] = Homo sapiens, HT-29; read-out: Growth % Inhibition at 100 μM

Molecule: Nc1nc2c(ncn2[C@@H]2O[C@@H]3COP(=O)(O)O[C@H]3[C@H]2O)c(=O)[nH]1 [cGMP, cyclic guanosine 3',5'-monophosphate]
- Kd (native bovine PDE5): 1.3 µM
- Km ([1]; read-out: Km of peak B for cGMP (increasing slope)): < 1 µM
- Km ([1]; read-out: apparent Km of peak B for cGMP (first, decreasing part of Eadie-Hofstee plot)): 8.4 µM

Molecule: CCCc1nn(C)c2c(=O)[nH]c(-c3cc(S(=O)(=O)N4CCN(C)CC4)ccc3OCC)nc12 [Sildenafil]
- effect on new cGMP-specific PDE (words, '375 application) [2]: little relative effect
- inhibition of peak A activity (PDE peak A (PDE5)): inhibited activity of peak A

Molecule: CCOC(=O)C1=C[C@]2(CC)CCCN3CCc4c(n1c1ccccc41)[C@@H]32 [Vinpocetine]
- sensitivity of peak B / novel PDE to inhibitor [1]: insensitive

Molecule: CCCCCC[C@H]([C@H](C)O)n1cnc2c(N)ncnc21 (relative stereo) [EHNA]
- IC50 (PDE peak A (PDE5)): > 100 µM
- fold induction at 100 µM [3]: < 2
- IC50 ([1]; cGMP hydrolysis, 0.25 μM 3H-cGMP): 3.7 µM

- inhibition at 100 µM [4]: 94%
Molecule: Clc1cccc(Nc2nnc(-c3ccccc3)c3ccccc23)c1 [MY5445, 1-(3-chloroanilino)-4-phenyphthalazine]

Molecule: CCCOc1ccccc1-c1nc2nn[nH]c2c(=O)[nH]1 [Zaprinast]
- sensitivity of peak B / novel PDE to inhibitor [1]: reduced sensitivity to inhibition; also recorded: zaprinast-insensitive

Molecule: CC1(C)C(=O)Nc2ccc(C3=NNC(=O)CC3)cc21 [Indolidan]
- sensitivity of peak B / novel PDE to inhibitor [1]: insensitive

Molecule: COc1cc(/C=C2/C(C)=C(CC(=O)O)c3cc(F)ccc32)cc(OC)c1OC [B, (Z)-5-Fluoro-2-methyl-1-(3,4,5-trimethoxybenzylidene)-3-acetic acid]
- fold induction at 100 µM [3]: 3.4
- cGMP PDE % Inhibition at 10 μM (cGMP PDE): < 25%
- cGMP PDE inhibition at 20 μM (cGMP PDE; 20 μM, FIG. 8): greater than 50%
- COX-I inhibition [4]: neither test compound B and E significantly inhibit COX-I

Molecule: O=C(O)C1CCN(c2nc(NCc3ccc4c(c3)OCO4)c3cc(Cl)ccc3n2)CC1 [Compound E4021]
- inhibition at 100 µM (HT-29 cells; Homo sapiens, HT-29, read-out: Growth % Inhibition at 100 μM): < 50%

Molecule: COc1ccc(C2CNC(=O)C2)cc1OC1CCCC1 (stereo not shown) [Rolipram]
- effect on cAMP level (HT-29 cells (cAMP level)): increased cAMP
- sensitivity of peak B / novel PDE to inhibitor [1]: insensitive

Molecule: CC1=C(CC(=O)O)c2cc(F)ccc2/C1=C\c1ccc(Cl)cc1 [Compound C, (Z)-5-Fluoro-2-methyl-1-(p-chlorobenzylidene)-3-acetic acid]
- cGMP PDE % Inhibition at 10 μM (cGMP PDE): < 25%
- inhibition at 100 µM (HT-29 cells; [7]): 80%

Molecule: PDE peak A (PDE5) (Homo sapiens)
- Km [5]: 1.07 µM
- Vmax [5]: 0.16 nmol/min/mg

Molecule: CC1=C(CC(=O)O)c2cc(F)ccc2/C1=C\c1ccc([S+](C)[O-])cc1 (stereo not shown) [sulindac]
- inhibition of premalignant lesions [6]: effectively inhibit the formation of premalignant lesions

Molecule: CCN(CC)CCSC12CC(=O)OC1(C)/C(=C/c1ccc(S(C)(=O)=O)cc1)c1ccc(F)cc12 (racemic) [A, rac-threo-(E)-1-(N,N'-diethylaminoethanethio)-1-(butan-1',4'-olido)-[3',4':1,2]-6-fluoro-2-methyl-3-(p-methylsulfonylbenzylidene)-indan]
- fold induction at 100 µM [3]: < 2
- cGMP PDE % Inhibition at 10 μM (cGMP PDE): < 25%
- inhibition at 100 µM [4]: < 25%
- inhibition at 100 µM (HT-29 cells; [7]): 68%

- mode of inhibition of peak A (PDE peak A (PDE5)): competitively inhibited
Molecule: COc1cc(/C=C2/C(C)=C(CC(=O)NCc3ccccc3)c3cc(F)ccc32)cc(OC)c1OC [Compound E, (Z)-5-Fluoro-2-methyl-1-(3,4,5-trimethoxybenzylidene)-3-indenylacetamide, N-benzyl]
- apoptosis-inducing or growth-inhibiting properties ([3]; neoplastic cells): precisely the opposite
- COX-I inhibition [4]: neither test compound B and E significantly inhibit COX-I
- mode of inhibition of peak B [1]: competitively inhibited

- inhibition at 100 µM [4]: < 25%
Molecule: CC(=O)NC(CSC12CC(=O)OC1(C)/C(=C/c1ccc(S(C)(=O)=O)cc1)c1ccc(F)cc12)C(=O)O (racemic) [D, rac-(E)-1-(butan-1',4'-olido)-[3',4':1,2]-6-fluoro-2-methyl-3-(p-methylsulfonylbenzylidene)-1S-indanyl-N-acetylcysteine]
- inhibition at 100 µM (HT-29 cells; [7]): 78%
